Source: BindingDB's records for doi:10.1016/s0960-894x(00)00026-3 (Universit&#224, 2000)
pKi: −log10 of the molar value.

Assay: Inhibition of Clostridium histolyticum collagenase using a linear regression program

With `CC(C(=O)NO)N(Cc1ccc([N+](=O)[O-])cc1)S(=O)(=O)c1ccccc1` (stereo not drawn) [2-[Benzenesulfonyl-(4-nitro-benzyl)-amino]-N-hydroxy-propionamide] as the molecule, how does the pKi read?
Its pKi is 4.27.

With `CC(C(=O)NO)N(Cc1ccc([N+](=O)[O-])cc1)S(=O)(=O)C(Cl)(Cl)Cl` (stereo not drawn) [N-Hydroxy-2-[(4-nitro-benzyl)-trichloromethanesulfonyl-amino]-propionamide] as the molecule, how does the pKi read?
Its pKi is 4.28.

With `CC(C(=O)O)N(Cc1ccc([N+](=O)[O-])cc1)C(=O)Nc1ccc(F)cc1F` (stereo not drawn) [2-[3-(2,4-Difluoro-phenyl)-1-(4-nitro-benzyl)-ureido]-propionic acid] as the molecule, how does the pKi read?
Its pKi is 5.21.

With `CC(C(=O)NO)N(Cc1ccc([N+](=O)[O-])cc1)C(=O)Nc1cccc(Cl)c1` (stereo not drawn) [2-[3-(3-Chloro-phenyl)-1-(4-nitro-benzyl)-ureido]-N-hydroxy-propionamide] as the molecule, how does the pKi read?
The pKi was 4.85.

With `CC(C(=O)NO)N(Cc1ccc([N+](=O)[O-])cc1)S(=O)(=O)c1ccc2ccccc2c1` (stereo not drawn) [N-Hydroxy-2-[(naphthalene-2-sulfonyl)-(4-nitro-benzyl)-amino]-propionamide] as the molecule, how does the pKi read?
Its pKi is 5.10.

With `CC(C(=O)O)N(Cc1ccc([N+](=O)[O-])cc1)S(=O)(=O)c1ccc(I)cc1` (stereo not drawn) [2-[(4-Iodo-benzenesulfonyl)-(4-nitro-benzyl)-amino]-propionic acid] as the molecule, how does the pKi read?
The pKi was 4.92.

With `CC(C(=O)O)N(Cc1ccc([N+](=O)[O-])cc1)C(=O)Nc1cccc2ccccc12` (stereo not drawn) [2-[3-Naphthalen-1-yl-1-(4-nitro-benzyl)-ureido]-propionic acid] as the molecule, how does the pKi read?
Its pKi is 5.34.

With `CC(C(=O)NO)N(Cc1ccc([N+](=O)[O-])cc1)S(=O)(=O)Cc1ccccc1` (stereo not drawn) [N-Hydroxy-2-[(4-nitro-benzyl)-phenylmethanesulfonyl-amino]-propionamide] as the molecule, how does the pKi read?
The pKi was 4.30.

With `CC(=O)c1ccc(S(=O)(=O)N(Cc2ccc([N+](=O)[O-])cc2)C(C)C(=O)O)cc1` (stereo not drawn) [2-[(4-Acetyl-benzenesulfonyl)-(4-nitro-benzyl)-amino]-propionic acid] as the molecule, how does the pKi read?
The pKi was 5.68.

With `CC(C(=O)O)N(Cc1ccc([N+](=O)[O-])cc1)S(=O)(=O)c1cccc([N+](=O)[O-])c1` (stereo not drawn) [2-[(3-Nitro-benzenesulfonyl)-(4-nitro-benzyl)-amino]-propionic acid] as the molecule, how does the pKi read?
Its pKi is 5.26.

With `CC(C(=O)NO)N(Cc1ccc([N+](=O)[O-])cc1)C(=S)NC(=O)c1ccccc1` (stereo not drawn) [2-[3-Benzoyl-1-(4-nitro-benzyl)-thioureido]-N-hydroxy-propionamide] as the molecule, how does the pKi read?
Its pKi is 5.22.

With `CC(=O)c1ccc(S(=O)(=O)N(Cc2ccc([N+](=O)[O-])cc2)C(C)C(=O)NO)cc1` (stereo not drawn) [2-[(4-Acetyl-benzenesulfonyl)-(4-nitro-benzyl)-amino]-N-hydroxy-propionamide] as the molecule, how does the pKi read?
Its pKi is 5.05.

With `CC(C(=O)O)N(Cc1ccc([N+](=O)[O-])cc1)S(=O)(=O)c1ccc(F)cc1` (stereo not drawn) [2-[(4-Fluoro-benzenesulfonyl)-(4-nitro-benzyl)-amino]-propionic acid] as the molecule, how does the pKi read?
The pKi was 5.00.

With `CC(C(=O)NO)N(Cc1ccc([N+](=O)[O-])cc1)S(=O)(=O)c1cccs1` (stereo not drawn) [N-Hydroxy-2-[(4-nitro-benzyl)-(thiophene-2-sulfonyl)-amino]-propionamide] as the molecule, how does the pKi read?
Its pKi is 4.96.

With `CC(C(=O)O)N(Cc1ccc([N+](=O)[O-])cc1)Sc1ccccc1[N+](=O)[O-]` (stereo not drawn) [2-[(4-Nitro-benzyl)-(2-nitro-phenylsulfanyl)-amino]-propionic acid] as the molecule, how does the pKi read?
Its pKi is 5.20.

With `CC(C(=O)O)N(Cc1ccc([N+](=O)[O-])cc1)C(=O)Nc1ccc(Cl)cc1` (stereo not drawn) [2-[3-(4-Chloro-phenyl)-1-(4-nitro-benzyl)-ureido]-propionic acid] as the molecule, how does the pKi read?
The pKi was 5.19.

With `Cc1cc(C)c(S(=O)(=O)N(Cc2ccc([N+](=O)[O-])cc2)C(C)C(=O)NO)c(C)c1` (stereo not drawn) [N-Hydroxy-2-[(4-nitro-benzyl)-(2,4,6-trimethyl-benzenesulfonyl)-amino]-propionamide] as the molecule, how does the pKi read?
Its pKi is 4.77.

With `CC(C(=O)NO)N(Cc1ccc([N+](=O)[O-])cc1)S(=O)(=O)c1ccc(NC(=O)OC(C)(C)C)cc1` (stereo not drawn) [{4-[(1-Hydroxycarbamoyl-ethyl)-(4-nitro-benzyl)-sulfamoyl]-phenyl}-carbamic acid tert-butyl ester] as the molecule, how does the pKi read?
The pKi was 5.00.
